Reference: PMC10399197, “Insights into Enzymatic Catalysis from Binding and Hydrolysis of Diadenosine Tetraphosphate by E. coli Adenylate Kinase” (Biochemistry, 2023)

Columns and labels:
[1] = biological target: T1, adenylate kinase (AdK) (Escherichia coli, UniProt P69441); assay: X-ray crystal structure at […] Å (AdK cocrystallized with AP4A; two ADP molecules modeled); type: binding
[2] = biological target: T1, adenylate kinase (AdK); assay: Kd (Figure S1; ITC in the Supporting Information); also 1H-15N HSQC NMR, DEER EPR and […] NMR hydrolysis; type: binding; design: wild-type AdK

T1 sequence (P69441 whole entry): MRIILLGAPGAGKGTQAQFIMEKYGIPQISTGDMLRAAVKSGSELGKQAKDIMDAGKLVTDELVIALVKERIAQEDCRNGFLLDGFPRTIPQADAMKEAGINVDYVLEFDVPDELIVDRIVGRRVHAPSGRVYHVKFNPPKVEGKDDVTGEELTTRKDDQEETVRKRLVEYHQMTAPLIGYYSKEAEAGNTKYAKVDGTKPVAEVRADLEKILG

| SMILES | X-ray crystal structure at 1.49 Å (AdK cocrystallized with AP4A); two ADP molecul [1] | Kd [2] |
| --- | --- | --- |
| Nc1ncnc2c1ncn2[C@@H]1O[C@H](COP(=O)(O)OP(=O)(O)O)[C@@H](O)[C@H]1O [ADP] | the crystals trapped AdK in the closed conformation in complex with two ADP molecules | – |
| Nc1ncnc2c1ncn2[C@@H]1O[C@H](COP(=O)(O)OP(=O)(O)OP(=O)(O)OP(=O)(O)OC[C@H]2O[C@@H](n3cnc4c(N)ncnc43)[C@H](O)[C@@H]2O)[C@@H](O)[C@H]1O [AP4A] | – | 14 µM |
